Earlier results as cited in patent US20060264455A1 (priority 2005, published 2006).

System: 6 Hz limbic seizures (corneal stimulation)
Settings: established antiepileptic drugs; cited from earlier work

Row | SMILES | Efficacy in the 6 Hz psychomotor seizure model
1 | CC1(C)O[C@@H]2[C@@H](CO[C@@]3(COS(N)(=O)=O)OC(C)(C)O[C@@H]23)O1 [topiramate] | limited efficacy
2 | NC(=O)N1c2ccccc2C=Cc2ccccc21 [carbamazepine] | limited efficacy
3 | Nc1nnc(-c2cccc(Cl)c2Cl)c(N)n1 [lamotrigine] | limited efficacy
4 | O=C1NC(=O)C(c2ccccc2)(c2ccccc2)N1 [phenytoin] | limited efficacy
